PubChem BioAssay (NCI)
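These data come from cells grown in 96-well plates and exposed to compound for 48 hours at five concentrations. The concentration for 50% growth inhibition is given as GI50. TGI marks complete inhibition of growth.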

How the values were obtained:
Assay in all cases: NCI-60 cell line screen, 48 h
OVCAR-3 ovarian = system: OVCAR-3 ovarian
MOLT-4 leukemia = system: MOLT-4 leukemia
U251 CNS = system: U251 CNS
NCI-H23 lung = system: NCI-H23 lung
CCRF-CEM leukemia = system: CCRF-CEM leukemia
UO-31 renal = system: UO-31 renal
CAKI-1 renal = system: CAKI-1 renal
MCF7 breast = system: MCF7 breast
SF-539 CNS = system: SF-539 CNS
SNB-75 CNS = system: SNB-75 CNS
SK-MEL-2 melanoma = system: SK-MEL-2 melanoma

| Compound | TGI (OVCAR-3 ovarian) | TGI (MOLT-4 leukemia) | TGI (U251 CNS) | TGI (NCI-H23 lung) | TGI (CCRF-CEM leukemia) | TGI (UO-31 renal) | TGI (CAKI-1 renal) | TGI (MCF7 breast) | TGI (SF-539 CNS) | TGI (SNB-75 CNS) | TGI (SK-MEL-2 melanoma) | GI50 (OVCAR-3 ovarian) | GI50 (U251 CNS) | GI50 (NCI-H23 lung) | GI50 (UO-31 renal) | GI50 (CAKI-1 renal) | GI50 (MCF7 breast) | GI50 (SF-539 CNS) | GI50 (SNB-75 CNS) | GI50 (SK-MEL-2 melanoma) |
| --- | --- | --- | --- | --- | --- | --- | --- | --- | --- | --- | --- | --- | --- | --- | --- | --- | --- | --- | --- | --- |
| CS/C(C#N)=C(\C#N)SC | 4.88 µM | 4.77 µM | > 100 µM | 79.4 µM | > 100 µM | 18.9 µM | 22.3 µM | 12.3 µM | 34.1 µM | > 100 µM | 31.7 µM | – | – | – | – | – | – | – | – | – |
| Cc1cccc(O)c1-c1nnc(CCCCCCCCc2nnc(-c3c(C)cccc3O)n2N)n1N | > 100 µM | > 42.1 µM | 67.5 µM | > 100 µM | 37.1 µM | > 100 µM | > 100 µM | > 100 µM | > 100 µM | > 58.1 µM | > 83.3 µM | – | – | – | – | – | – | – | – | – |
| c1ccc(CSc2ccccc2CN2CCN(Cc3ccccc3SCc3ccccc3)CCN(Cc3ccccc3SCc3ccccc3)CC2)cc1 | 1.82 µM | 6.26 µM | 2.08 µM | 2.67 µM | > 100 µM | 7.66 µM | 11.3 µM | 3.32 µM | 3.54 µM | 4.18 µM | 2.83 µM | – | – | – | – | – | – | – | – | – |
| CCN1CCN(c2nc3ccccc3nc2C(=O)c2ccc(OC)cc2)CC1 | > 100 µM | > 100 µM | > 100 µM | > 100 µM | – | > 100 µM | > 100 µM | 58.8 µM | > 100 µM | > 100 µM | > 100 µM | – | – | – | – | – | – | – | – | – |
| c1ccc(CSC2(SCc3ccccc3)CCCC2)cc1 | > 10 µM | > 10 µM | > 10 µM | > 10 µM | > 10 µM | > 10 µM | > 10 µM | > 10 µM | > 10 µM | > 10 µM | > 10 µM | – | – | – | – | – | – | – | – | – |
| C[C@H]1C(=O)O[C@@H]1[C@H]1COC(C)(C)O1 | > 100 µM | > 100 µM | > 100 µM | > 100 µM | > 100 µM | > 100 µM | > 100 µM | > 100 µM | > 100 µM | > 100 µM | > 100 µM | – | – | – | – | – | – | – | – | – |
| COC(=O)C(=O)C(C(=O)C1=NS(=O)(=O)c2cc(S(N)(=O)=O)c(Cl)cc2N1)c1nc2ccc(C(=O)c3ccccc3)cc2[nH]c1=O (stereo not drawn) | – | > 100 µM | > 100 µM | > 100 µM | > 100 µM | > 100 µM | > 100 µM | – | > 100 µM | – | > 100 µM | – | – | – | – | – | – | – | – | – |
| [O-]c1c[n+](CCCC[n+]2cc([O-])on2)no1 | > 100 µM | > 100 µM | > 100 µM | > 100 µM | > 100 µM | > 100 µM | > 100 µM | > 100 µM | > 100 µM | > 100 µM | > 100 µM | – | – | – | – | – | – | – | – | – |
| Nc1ccc(Oc2ccc(C3(c4ccc(Oc5ccc(N)cc5)cc4)C4CC5C6CC7CC5C3C(C7)C6C4)cc2)cc1 | > 100 µM | > 100 µM | > 70 µM | > 95.3 µM | > 100 µM | > 100 µM | > 100 µM | > 100 µM | > 100 µM | > 100 µM | > 100 µM | – | – | – | – | – | – | – | – | – |
| Nc1nc(Cl)cc(NCCCNc2cc(Cl)nc(N)n2)n1 | > 100 µM | > 100 µM | > 100 µM | > 100 µM | > 100 µM | > 100 µM | – | – | > 100 µM | > 100 µM | > 100 µM | – | – | – | – | – | – | – | – | – |
| CN(C)CCCNC(=O)c1cc(NC(=O)c2cc(NS(=O)(=O)c3ccc4c(c3)C(=O)c3ccccc3C4=O)cn2C)cn1C | > 100 µM | > 100 µM | > 100 µM | > 100 µM | > 100 µM | > 100 µM | > 100 µM | > 100 µM | > 100 µM | > 100 µM | > 100 µM | – | – | – | – | – | – | – | – | – |
| Cc1ccc(-c2cc(-c3ccc(Cl)cc3)nc(/N=C3\C(=O)N(CN4CCOCC4)c4ccccc43)n2)cc1 | > 100 µM | 35.8 µM | 77 µM | 46 µM | 88.2 µM | – | 80 µM | > 100 µM | 36.5 µM | 70.2 µM | 37.2 µM | – | – | – | – | – | – | – | – | – |
| O=c1oc2ccccc2n1P(=O)(n1c(=O)oc2ccccc21)n1c(=O)oc2ccccc21 | > 100 µM | > 100 µM | > 100 µM | > 100 µM | > 100 µM | > 100 µM | > 100 µM | – | > 100 µM | > 100 µM | > 100 µM | – | – | – | – | – | – | – | – | – |
| Cn1cc(-c2csc(-c3cn(C)c4ccc(Br)cc34)n2)c2cnccc21 | 3.49 µM | – | 3.27 µM | 3.65 µM | – | 3 µM | 3.22 µM | 3.43 µM | 3.23 µM | 2.6 µM | 3.76 µM | 1890 nM | 1780 nM | 1930 nM | 1630 nM | 1770 nM | 1780 nM | 1800 nM | 1280 nM | 1930 nM |
| CN1C(=O)CN2C(Cl)(Cl)C2(c2ccccc2F)c2cc([N+](=O)[O-])ccc21 (stereo not drawn) | > 100 µM | 57.2 µM | > 100 µM | > 100 µM | > 100 µM | > 100 µM | > 100 µM | – | – | > 100 µM | > 100 µM | – | – | – | – | – | – | – | – | – |
| CC1=C(C#N)C23C(=O)c4ccccc4C(O)=C2C(=O)C=CC3(O)N1 (stereo not drawn) | > 100 µM | > 100 µM | > 100 µM | 31.9 µM | > 100 µM | 7.55 µM | 23.3 µM | 4.59 µM | 8.83 µM | 4.56 µM | 22.5 µM | – | – | – | – | – | – | – | – | – |
| Cc1ccccc1[P+](C)(c1ccccc1C)c1ccccc1C | 23.6 µM | – | 28.4 µM | 27.3 µM | 0.0867 µM | 34.8 µM | – | > 100 µM | 40.8 µM | 40.8 µM | 34.7 µM | – | – | – | – | – | – | – | – | – |
| CC(N)C(=O)OCN1C(=O)C2C3C=CC(C2C1=O)C1C2C(=O)N(COC(=O)C(C)N)C(=O)C2C31 (stereo not drawn) | 91.5 µM | 51.8 µM | 50.3 µM | 43.2 µM | 67.2 µM | > 100 µM | > 100 µM | – | 47.2 µM | 85.5 µM | 39 µM | – | – | – | – | – | – | – | – | – |
| CNC1C(O)C(NC)C2OC3(O)C(=O)CC(C)OC3OC2C1O (stereo not drawn) | > 100 µM | > 100 µM | > 100 µM | > 100 µM | > 100 µM | > 100 µM | > 100 µM | > 100 µM | > 100 µM | > 100 µM | > 100 µM | – | – | – | – | – | – | – | – | – |
| Oc1cccc(-c2ccc3c4c2O[C@H]2c5[nH]c6ccccc6c5C[C@@]5(O)[C@@H](C3)N(CC3CC3)CC[C@]425)c1 | 3.42 µM | – | – | 5.17 µM | 10.4 µM | 3.03 µM | 3.41 µM | – | 3.14 µM | – | 5.13 µM | – | – | – | – | – | – | – | – | – |
| CCN1C(=S)n2cccc2C1CC(=O)c1ccc(Cl)cc1 (stereo not drawn) | > 100 µM | 90.1 µM | > 100 µM | > 100 µM | – | > 100 µM | > 100 µM | > 100 µM | – | > 100 µM | > 100 µM | – | – | – | – | – | – | – | – | – |
| O=Nc1c(-c2c(O)[nH]c3ccccc23)[nH]c2ccccc12 | > 89.7 µM | > 100 µM | > 65.4 µM | > 44.6 µM | 29.7 µM | 13.4 µM | 41 µM | > 23.9 µM | > 100 µM | 16.5 µM | 7.62 µM | – | – | – | – | – | – | – | – | – |
| C=C1C(=O)OC2/C=C(\C)C3OC3/C=C(/C(=O)OC)C(O)C(OC(=O)C3(C)OC3C)C12 (stereo not drawn) | 10 µM | 4.05 µM | 16.8 µM | 3.5 µM | 2.63 µM | 27.3 µM | 4.97 µM | – | 5.46 µM | 26.3 µM | 6.46 µM | – | – | – | – | – | – | – | – | – |
| CN(C)CC1CCCC(CN2CCCCC2)C1=O (stereo not drawn) | 17.1 µM | 12.5 µM | > 66.9 µM | 35.8 µM | 5.48 µM | 26.7 µM | 3.73 µM | 2.62 µM | 33.6 µM | 43.2 µM | 31.1 µM | – | – | – | – | – | – | – | – | – |
| C=CCc1c(C)nc(C)nc1N/N=C/C=C/c1ccccc1 | 53.3 µM | 54 µM | 61.3 µM | 94 µM | > 100 µM | > 100 µM | > 100 µM | 65.3 µM | > 100 µM | 91.6 µM | > 100 µM | – | – | – | – | – | – | – | – | – |
| CC(C)OC(=O)Nc1cccc(Cl)c1 | > 100 µM | > 100 µM | > 100 µM | > 100 µM | > 100 µM | > 100 µM | > 100 µM | > 100 µM | > 100 µM | > 100 µM | > 100 µM | – | – | – | – | – | – | – | – | – |
| CC(=O)OCc1ccc2oc(=O)c(C(=O)Oc3cccc(Cl)c3)cc2c1 | > 100 µM | > 100 µM | > 100 µM | > 100 µM | > 100 µM | 55.4 µM | > 100 µM | 61.6 µM | > 100 µM | > 100 µM | > 100 µM | – | – | – | – | – | – | – | – | – |
| Cc1nc2c(O)cc3c4c(=O)n(C)c(=O)n(C)c4n(Cc4ccccc4)c3c2nc1C | – | 70.1 µM | 35.4 µM | 38 µM | 50 µM | 31.4 µM | – | 32.2 µM | 30 µM | – | 31.9 µM | – | – | – | – | – | – | – | – | – |
| NC(=O)c1ccc(NS(=O)(=O)c2ccc(N)cc2)nc1 | > 100 µM | > 100 µM | > 100 µM | > 100 µM | > 100 µM | > 100 µM | > 100 µM | > 100 µM | – | > 100 µM | > 100 µM | – | – | – | – | – | – | – | – | – |
| CCCCC(C(=O)N/N=C/c1ccc([N+](=O)[O-])o1)C(=O)N/N=C/c1ccc([N+](=O)[O-])o1 | 5.65 µM | 7.72 µM | 10.3 µM | 4.65 µM | 5.58 µM | 4.6 µM | 14.7 µM | 22.4 µM | 35.5 µM | 33.5 µM | 36.1 µM | – | – | – | – | – | – | – | – | – |
